Experimental findings from PubChem BioAssay (NCI) are described below.

Molecules are shown by their SMILES. Several values for one entry are separate records, joined by “and”; a condition that tells them apart may be missing. Identical values can stand only once.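 48-hour exposure; five concentrations; linearly interpolated endpoints. GI50: concentration for 50% inhibition of growth. The concentration for full growth arrest is given as TGI.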

Assay in all cases: NCI tumour cell line growth inhibition, 48 h
The subject of test [1] is NCI-H23 lung.
For test [2], the system named is NCI-H226 lung.
Test [3] concerns SR leukemia.
Test [4] deals with TK-10 renal.
Test [5] has as its system SK-OV-3 ovarian.
In test [6] the test system is IGROV1 ovarian.
Test [7] has as its system HCC-2998 colon.
The test system of test [8] is COLO 205 colon.
The subject of test [9] is NCI-H460 lung.
The subject of test [10] is RPMI-8226 leukemia.

As for `CO/C=C(\Br)c1ccc2c(c1)OCO2`, the TGI in [1], in [2], in test [3], in test [4], in [5] and in [6] was > 100 µM in each case.

Regarding `CC(=O)[CH-]C(C)=O.CC(=O)[CH-]C(C)=O.[Cl-].[O]=[V]`, the GI50 was 37.1 µM in [7]; 18.2 µM in test [8]; 14.2 µM in test [1]; 27.5 µM in test [2]; > 100 µM in test [3]; 24.5 µM in test [4]. The results for the GI50 in test [6] and in [9] were 11.1 µM and 46.2 µM, respectively. Further, the TGI in [7] is > 100 µM; in [8], 34.5 µM; in [1] it was 34.5 µM; in [2], 76.1 µM; in test [3] it was > 100 µM; in [4], 60.6 µM. Further, the TGI is 64.2 µM in [6] and > 100 µM in test [9].

In the case of `O=S1(=O)c2cc(S(=O)(=O)n3ccnc3)ccc2NC2=NCCCN21`, the TGI was 55.3 µM in test [7]; 35.2 µM in test [8]; > 100 µM in test [10]; > 100 µM in test [1]; 46.7 µM in [2]; 75.6 µM in test [3]. Also, the TGI in test [4] was > 100 µM; in test [5] it was 46.9 µM; in [6] it was > 100 µM.

On to `CC(C)CCCCCCCCCCCCC(=O)NCC(=O)NC1C(C)OC(Nc2ncnc3nc[nH]c23)C(O)C1O` (stereo not given), for which the GI50 is 0.00121 µM in test [7]; 0.00875 µM in test [1]; 0.00451 µM in test [3]; 0.000454 µM and 0.00314 µM in test [5]; 0.00319 µM in test [6]. Moreover, the TGI in test [1] was 0.172 µM; in [4], 0.0096 µM and 0.0809 µM; in test [5] it was 0.00397 µM and 0.0286 µM; in [6] it was 0.082 µM and < 0.0444 µM; in test [9], 0.00577 µM and < 0.0111 µM.

As for `CCc1[nH]nc(C(N)=O)c1N=NN(C)C`, the TGI in [7] is > 100 µM; in test [8], > 100 µM; in test [10], > 100 µM; in test [1], > 100 µM; in [2], > 100 µM; in test [3] it was 38.9 µM. Besides, the TGI in test [4], in test [5] and in test [6] was > 100 µM in each case.

For the molecule `COc1ccc(-c2cc(=O)c3cc(C)c(C)c(C(=O)O)c3o2)cc1`, the TGI in test [7], in [8], in [10], in test [1], in test [3] and in test [5] was > 100 µM each time. In addition, the TGI in test [6] and in test [9] was > 100 µM throughout.

Take `COc1ccc(C2=NN(C(C)=O)C(c3ccc(Oc4ccnc5cc(Cl)ccc45)c(OC)c3)C2)cc1` (stereo not given): the GI50 in test [7] was > 100 µM; in [10] it was > 100 µM; in [1], 11.9 µM; in [3] it was > 100 µM; in test [5] it was 6.01 µM; in test [6] it was 6.29 µM. Further, the TGI in test [7] was > 100 µM; in test [10] it was > 100 µM; in test [1], > 100 µM; in test [3], > 100 µM; in [5], 42.9 µM; in test [6], > 100 µM.

For the molecule `OCCN(CCO)c1nc(N2CCCCC2)c2nc(N(CCO)CCO)nc(N3CCCCC3)c2n1`, the TGI is 36.4 µM in [7]; > 100 µM in test [8]; > 100 µM in test [1]; > 100 µM in [2]; 22.2 µM in [3]; 64.6 µM in test [4]. Also, the TGI in [6] and in [9] was > 100 µM throughout.

For `CCN(CC)CCn1c(=O)c2cc(OC)c(OC)cc2c2ccc3cc4c(cc3c21)OCO4`, the GI50 in test [7] was 2.57 µM; in test [8], 0.192 µM; in test [10], 0.436 µM; in test [1], 0.348 µM; in test [2], 0.446 µM; in [3] it was 0.0415 µM. Further, the GI50 in test [4] is 13.4 µM; in test [6], 0.491 µM; in test [9], 0.0766 µM. Further, the TGI was 25.7 µM in [7]; 16.4 µM in [8]; 4.56 µM in test [10]; 11.6 µM in test [1]; > 50.6 µM in [2]; 2.51 µM in [3]. Besides, the TGI in test [4] came to 30.3 µM; in [6], 21.4 µM; in test [9], 1.41 µM.

`COc1cc2c(cc1O)c(=O)n(CCN(C)C)c1c3cc4c(cc3ncc21)OCO4`: the GI50 in test [7] is 0.109 µM; in test [8], 1.52 µM; in [10], 0.0242 µM; in test [1] it was < 0.01 µM; in test [2], 0.0184 µM; in test [4], 0.127 µM. Also, the GI50 in [5] is < 0.0106 µM; in [6], 0.0417 µM; in [9], < 0.01 µM. Moreover, the TGI is 0.398 µM in test [7]; 15.2 µM in [8]; 0.434 µM in test [10]; 0.151 µM in test [1]; 0.124 µM in test [2]; 0.524 µM in [4]. Further, the results for the TGI in test [5], in test [6] and in [9] were 0.0876 µM, 8.2 µM and 0.329 µM, respectively.

Regarding `NNc1nc2ccccc2o1`, the TGI in [7], in test [8], in [10], in test [1], in test [2] and in [3] was > 100 µM each time. Further, the TGI in [4], in test [6] and in test [9] was > 100 µM each time.

Take `O=C1NC2(CCCC2)C2CCCCC12O` (stereo not given): the TGI in [8], in test [10], in test [1], in [3], in test [4] and in [5] was > 100 µM throughout. Further, the TGI in [6] and in test [9] was > 100 µM each time.

Regarding `CCN(CC)CCCNc1n[n+]([O-])c2ccccc2[n+]1[O-]`, the TGI in [7] is 15.7 µM; in test [8], 40.1 µM; in test [10], 23.3 µM; in test [1] it was 46.9 µM; in [2], 85.6 µM; in [3], 76.2 µM. In addition, the TGI in test [4] is 39 µM; in test [6], 24.2 µM; in test [9] it was 27.4 µM.
